Measurements published in patent EP4745127A1, “PYRIMIDINAMINE NUAK INHIBITOR AS WELL AS PREPARATION METHOD THEREFOR AND USE THEREOF” (Technoderma Medicines Inc., priority 2023, dated 2025).

Experiments:
NUAK1 = molecular target: T1, NUAK1 (Homo sapiens, UniProt O60285); assay: Kinase activity inhibition assay, P81 filter paper binding hot-spot technique (33P-ATP, CHKtide substrate); assay type: biochemical; details: final concentration of NUAK1 10 nM; 20 µM CHKtide substrate; incubated 2 hours at room temperature; read-out: IC50 (nM) of Test Compounds of the Present Application against NUAK1
T1 sequence (O60285 1-661): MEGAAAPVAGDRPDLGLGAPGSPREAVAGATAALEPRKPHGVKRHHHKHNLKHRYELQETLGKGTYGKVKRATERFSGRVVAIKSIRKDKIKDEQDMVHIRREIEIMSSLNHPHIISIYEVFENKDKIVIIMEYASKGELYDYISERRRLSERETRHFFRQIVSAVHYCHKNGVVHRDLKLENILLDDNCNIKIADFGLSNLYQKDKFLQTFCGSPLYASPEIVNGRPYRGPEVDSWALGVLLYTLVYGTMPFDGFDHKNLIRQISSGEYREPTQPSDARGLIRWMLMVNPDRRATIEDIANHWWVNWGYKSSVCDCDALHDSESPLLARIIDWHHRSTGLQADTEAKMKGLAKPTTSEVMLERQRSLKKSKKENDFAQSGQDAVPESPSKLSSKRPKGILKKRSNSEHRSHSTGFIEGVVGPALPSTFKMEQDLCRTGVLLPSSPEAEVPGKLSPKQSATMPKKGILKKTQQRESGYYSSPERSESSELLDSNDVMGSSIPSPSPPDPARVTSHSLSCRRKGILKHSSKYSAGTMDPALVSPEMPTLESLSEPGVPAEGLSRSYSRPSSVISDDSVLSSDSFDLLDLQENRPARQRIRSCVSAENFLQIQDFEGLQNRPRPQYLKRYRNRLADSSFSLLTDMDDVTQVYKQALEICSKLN
Description: (§1) The inhibitory activity of the pyrimidinamine small molecules involved in the present application against NUAK1 and NUAK2 kinases was determined using a kinase activity assay based on the P81 filter paper binding hot-spot technique (Nat Biotechnol. 2011, 29:1039). A brief description is as follows:
(§2) The assay buffer system contained 20 mM Hepes (pH 7.5), 10 mM MgCl2, 1 mM EGTA, 0.01% Brij35 (L23 polyoxyethylene lauryl ether), 0.02 mg/mL BSA (bovine serum albumin), 0.1 mM Na3VO4, 2 mM DTT, and 1% DMSO.
(§3) • 1. A 20 µM substrate solution was prepared with freshly prepared test buffer and CHKtide peptide fragments (Sanchez Y. Science. 1997, 277: 1497-1501) were used as a substrate. • 2. Kinases were added and mixed gently (a final concentration of NUAK1 was 10 nM; and a final concentration of NUAK2 was 50 nM). • 3. Test compounds dissolved in 100% DMSO were each added to the above kinase reaction mixture solution via Acoustic Droplet Ejection (Echo550; nanoliter) and the mixture was incubated for 5 minutes at room temperature. • 4. ^33P-labeled ATP (a ratio of unlabeled ATP to labeled ATP was 25:1 or 2.5:1) was added. • 5. The mixture was incubated for 2 hours at room temperature. • 6. Kinase activity was tested using the P81 filter paper combined with hotspot technology.
(§4) The IC50 values of the test compounds against NUAK1/NUAK2 were calculated according to the above test. For specific results, see Table 1.
(§5) The IC50 values were calculated by using a formula derived from sigmoidal dose-response curve (variable slope):
(§6) Y = Bottom + (Top-Bottom)/(1+10^((LogEC50-X)*Slope, where X is the logarithm of compound concentration, Y is the response (inhibition rate of kinase activity), and Y rises from bottom to top along the sigmoidal curve as the concentration increases. Table 1: IC50 (nM) of Test Compounds of the Present Application against NUAK1/NUAK2

NUAK2 = molecular target: T2, NUAK2 (Homo sapiens, UniProt Q9H093); assay: as above; assay type: biochemical; details: final concentration of NUAK2 50 nM; 20 µM CHKtide substrate; incubated 2 hours at room temperature; read-out: IC50 (nM) of Test Compounds of the Present Application against NUAK2
T2 sequence (Q9H093 1-628): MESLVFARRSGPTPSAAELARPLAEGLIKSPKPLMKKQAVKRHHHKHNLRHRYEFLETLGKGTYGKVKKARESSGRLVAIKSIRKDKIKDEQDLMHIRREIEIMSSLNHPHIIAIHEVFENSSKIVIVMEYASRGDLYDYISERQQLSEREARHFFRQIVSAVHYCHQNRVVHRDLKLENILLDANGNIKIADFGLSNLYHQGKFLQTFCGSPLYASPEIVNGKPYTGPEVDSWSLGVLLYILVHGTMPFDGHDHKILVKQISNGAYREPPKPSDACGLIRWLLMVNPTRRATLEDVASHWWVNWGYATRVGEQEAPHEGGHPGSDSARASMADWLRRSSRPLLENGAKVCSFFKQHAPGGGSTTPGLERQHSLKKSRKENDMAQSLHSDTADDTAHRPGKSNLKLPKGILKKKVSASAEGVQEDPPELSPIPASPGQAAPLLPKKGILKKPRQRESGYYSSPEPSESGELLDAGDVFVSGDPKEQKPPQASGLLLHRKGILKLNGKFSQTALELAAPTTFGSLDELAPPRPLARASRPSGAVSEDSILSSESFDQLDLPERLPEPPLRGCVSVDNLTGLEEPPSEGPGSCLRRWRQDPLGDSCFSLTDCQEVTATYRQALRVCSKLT
Description: as §1, §2, §3, §4, §5, §6

## CN1CCN(c2ccc(Nc3ncc(Cl)c(Oc4cccc(NC(=O)C5CC5(F)F)c4)n3)cc2)CC1 (stereo not shown) [TDM-181120]
NUAK1
  IC50: 21 nM
NUAK2
  IC50: 311 nM

## O=C(Nc1cccc(Oc2nc(Nc3cnn(C4CCNCC4)c3)ncc2Cl)c1)C1CC1(F)F (stereo not shown) [TDM-181127, N-(3-((5-Chloro-2-((1-(piperidin-4-yl)-1H-pyrazol-4-yl)amino)pyrimidin-4-yl)oxy)phenyl)-2,2-difluorocyclopropane-1-carboxamide]
NUAK1
  IC50: 161 nM
NUAK2
  IC50: 352 nM

## CN1CCN(c2ccc(Nc3ncc(Cl)c(N(C)c4cccc(NC(=O)[C@@H]5CC5(F)F)c4)n3)cc2)CC1 [TDM-181131, (S)-N-(3-((5-Chloro-2-((4-(4-methylpiperazin-1-yl)phenyl)amino)pyrimidin-4-yl)(methyl)amino)phenyl)-2,2-difluorocyclopropane-1-carboxamide]
NUAK1
  IC50: 81 nM
NUAK2
  IC50: 635 nM

## COc1cc(N2CCN(C)CC2)ccc1Nc1ncc(Cl)c(Oc2ccccc2NC(=O)C2CC2)n1 [TDM-181132, N-(2-((5-Chloro-2-((2-methoxy-4-(4-methylpiperazin-1-yl)phenyl)amino)pyrimidin-4-yl)oxy)phenyl)cyclopropanecarboxamide]
NUAK1
  IC50: 24 nM
NUAK2
  IC50: 37 nM

## COc1cc(N2CCN(C)CC2)ccc1Nc1ncc(Cl)c(Oc2ccccc2NC(=O)[C@@H]2CC2(F)F)n1 [TDM-181160, (S)-N-(2-((5-Chloro-2-((2-methoxy-4-(4-methylpiperazin-1-yl)phenyl)amino)pyrimidin-4-yl)oxy)phenyl)-2,2-difluorocyclopropane-1-carboxamide]
NUAK1
  IC50: 4 nM
NUAK2
  IC50: 13 nM
